What was measured:
[1] = biological target: T1, CYP3A4 (Homo sapiens, UniProt P08684); experiment: Spectral binding (equilibrium) titrations of CYP3A4; conditions: for Kd: human, CYP3A4 protein solution (2 μM), sigmoidal (Hill) fit
Experimental: (§1) Equilibrium titrations of CYP3A4 were conducted in a Cary 300 spectrophotometer at ambient temperature in 0.1 M phosphate, pH 7.4. […] The binding parameters were determined from fittings to the plot of the absorbance change (peak-to-trough separations in the difference spectra; ΔA) vs ligand concentration.

[2] = biological target: T1, CYP3A4; conditions: pH 7.4
Experimental: as §1

T1 sequence (P08684 with tags, fused parts or gaps): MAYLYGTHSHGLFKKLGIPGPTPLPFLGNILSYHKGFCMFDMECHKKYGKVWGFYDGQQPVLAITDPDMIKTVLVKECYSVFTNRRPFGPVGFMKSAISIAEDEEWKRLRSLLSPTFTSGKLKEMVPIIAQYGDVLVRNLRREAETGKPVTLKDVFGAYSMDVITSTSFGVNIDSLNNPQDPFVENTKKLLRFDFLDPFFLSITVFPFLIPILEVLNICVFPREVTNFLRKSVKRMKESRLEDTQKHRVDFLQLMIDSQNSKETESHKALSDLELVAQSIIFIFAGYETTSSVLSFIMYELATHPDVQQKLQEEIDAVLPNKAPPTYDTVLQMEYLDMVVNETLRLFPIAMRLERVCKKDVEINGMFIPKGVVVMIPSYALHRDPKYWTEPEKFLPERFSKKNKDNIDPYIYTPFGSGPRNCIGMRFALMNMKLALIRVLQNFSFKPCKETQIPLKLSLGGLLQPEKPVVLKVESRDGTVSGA

For `CC(=O)[C@H]1CC[C@H]2[C@@H]3CCC4=CC(=O)CC[C@]4(C)[C@H]3CC[C@]12C` [Progesterone], the Kd ([1]; pH 7.4, S50, 15 mM TEG) was 16 ± 2 µM, the Kd ([1]; pH 7.4, S50, no TEG) was 17 ± 1 µM and the “nH (Hill coefficient)” value [2] was 1.6 ± 0.1.
For `Cc1ncc2n1-c1ccc(Cl)cc1C(c1ccccc1F)=NC2` [Midazolam], the “decrease of binding affinity for WT CYP3A4 in the presence of TEG” value ([1]; 15 mM TEG vs no TEG) was 30%.
